According to patent publication US8546380B2, “Aminodihydrothiazine derivatives” (Shionogi & Co., Ltd., priority 2005, dated 2013):
Like-named read-outs stand apart in the source and are kept apart here.

Key:
[1] = target: recombinant human BACE-1 protein (Homo sapiens (Human), UniProt P56817); assay: Measurement of Inhibition of β-Secretase Activity; format: biochemical; conditions: 3 h at 30° C., pH5.0, read-out: IC50 value
How it was run: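 Recombinant human BACE-1 incubated with compound and Eu-cryptate-labelled biotinylated peptide substrate 3 h at 30° C in 50 mM sodium acetate pH 5.0, 0.008% Triton X-100. Streptavidin-XL665 in KF-containing phosphate buffer pH 7.0 then added, 1 h at 30° C, for time-resolved FRET read-out.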

[2] = fluorescence-quenched peptide substrate 18 nM, BACE-1 7.4 nM

Sequence of recombinant human BACE-1 protein (P56817 46-501): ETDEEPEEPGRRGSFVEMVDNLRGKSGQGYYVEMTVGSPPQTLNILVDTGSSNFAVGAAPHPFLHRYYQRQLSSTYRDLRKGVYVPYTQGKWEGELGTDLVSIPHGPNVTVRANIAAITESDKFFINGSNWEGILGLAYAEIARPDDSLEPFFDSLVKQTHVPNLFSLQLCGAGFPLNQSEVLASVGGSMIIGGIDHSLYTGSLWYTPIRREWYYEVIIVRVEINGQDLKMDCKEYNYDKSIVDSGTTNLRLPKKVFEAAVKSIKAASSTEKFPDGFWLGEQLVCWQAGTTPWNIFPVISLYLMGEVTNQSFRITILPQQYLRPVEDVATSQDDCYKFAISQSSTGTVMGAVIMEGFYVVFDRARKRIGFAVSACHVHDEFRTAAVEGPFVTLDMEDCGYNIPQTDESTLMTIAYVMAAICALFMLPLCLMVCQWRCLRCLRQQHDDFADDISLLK

| Structure (SMILES) | IC50 [1, 2] [µM] | melting point [°C] | IC50 ([1]; recombinant human BACE-1 protein) [µM] |
| --- | --- | --- | --- |
| Cc1ccccc1Oc1ccc(C2(C)CCSC(N)=N2)cc1 (stereo not drawn) [Compound 729] | < 100 | 167 to 169 |  |
| CC1(c2cccc(CNC(=O)c3ccc(Cl)cc3)c2)CCSC(N)=N1.Cl (stereo not drawn) [Compound 1184] | < 100 | 149 to 150 |  |
| CC1(c2cccc(CNC(=O)c3ccc(F)cc3)c2)CCSC(N)=N1.Cl (stereo not drawn) [Compound 1241] | < 100 | 194 to 195 |  |
| CC1(c2cccc(NC(=O)c3ncc(Cl)cn3)c2)CCSC(N)=N1 (stereo not drawn) [Compound 515] | < 100 | 204 to 206 |  |
| COc1ccc(CNc2cccc(C3(C)CCSC(N)=N3)c2)cc1.Cl.Cl (stereo not drawn) [Compound 600] | < 100 | 178 to 180 |  |
| CC1(c2cccc(/C=N/OCc3ccccn3)c2)CCSC(N)=N1 (stereo not drawn) [Compound 1193] | < 100 | 182 to 183 |  |
| CC1(c2cccc(SC(=O)c3ncc(Br)cn3)c2)CCSC(N)=N1 (stereo not drawn) [Compound 900] | < 100 | 205 to 207 |  |
| CC1(c2cccc(OCCOc3ccccc3)c2)CCSC(N)=N1.Cl (stereo not drawn) [Compound 57] | < 100 | 197 to 198 |  |
| Cc1cnc(C(=O)Nc2cccc(C3(C)CCSC(N)=N3)c2)cn1.Cl (stereo not drawn) [Compound 309] |  | 241 to 244 | 0.833 |
